In US12102086B2, “Antimicrobial peptide Spampcin56-86 from Scylla paramamosain and applications thereof” (XIAMEN UNIVERSITY, priority 2021, dated 2024):
Residues, ends and D or L forms follow the SMILES beside them.

Columns and labels:
[1] = tested on: L. monocytogenes; test: MIC and MBC determination; type: cell-based, Listeria Monocytogenes; conditions: CGMC NO. 1.10753, Gram-positive
[2] = tested on: F. oxysporum; conditions: CGMC NO. 3.6785, fungi
[3] = tested on: S. epidermidis; conditions: CGMC NO. 1.4260, Gram-positive
[4] = tested on: E. tarda; conditions: Gram-negative
[5] = tested on: A. sobria; conditions: Gram-negative
[6] = tested on: A. baumannii; conditions: CGMC NO. 1.6769, Gram-negative
[7] = tested on: S. aureus QZ19132
[8] = tested on: P. aeruginosa; conditions: CGMC NO. 1.2421, Gram-negative
[9] = tested on: F. solani; conditions: CGMC NO. 3.5840, fungi
[10] = tested on: E. faecium; test: MIC and MBC determination; type: cell-based, Enterococcus Faecium; conditions: CGMC NO. 1.131, Gram-positive
[11] = tested on: E. coli
[12] = tested on: A. baumannii QZ20143
[13] = tested on: P. fluorescens; test: MIC and MBC determination; type: cell-based, Pseudomonas fluorescens; conditions: CGMC NO. 1.3202, Gram-negative
[14] = tested on: S. aureus
[15] = tested on: A. baumannii QZ20142; conditions: A. baumannii QZ20142, drug-resistant clinical isolate
[16] = tested on: A. hydrophila; conditions: CGMC NO. 1.2017, Gram-negative
[17] = tested on: E. faecalis; test: MIC and MBC determination; type: cell-based, Enterococcus Faecalis; conditions: CGMC NO. 1.2135, Gram-positive

CC(C)C[C@H](NC(=O)CNC(=O)[C@H](Cc1c[nH]cn1)NC(=O)[C@H](C)NC(=O)[C@H](C)NC(=O)[C@H](CCCNC(=N)N)NC(=O)[C@@H](N)CCCNC(=N)N)C(=O)N[C@@H](CC(C)C)C(=O)N1CCC[C@H]1C(=O)N[C@@H](CCCNC(=N)N)C(=O)N[C@@H](CC(C)C)C(=O)N[C@@H](CCCNC(=N)N)C(=O)N[C@@H](C)C(=O)N1CCC[C@H]1C(=O)N1CCC[C@H]1C(=O)N1CCC[C@H]1C(=O)N[C@@H](Cc1ccccc1)C(=O)N[C@@H](Cc1c[nH]cn1)C(=O)N[C@@H](CCCCN)C(=O)N[C@@H](CCCNC(=N)N)C(=O)N[C@@H](CS)C(=O)N[C@H](C(=O)N[C@@H](CS)C(=O)N[C@@H](CC(C)C)C(=O)N[C@@H](CS)C(=O)N[C@@H](CCCNC(=N)N)C(=O)N[C@H](C(=O)N[C@@H](C)C(=O)N1CCC[C@H]1C(=O)N1CCC[C@H]1C(=O)N1CCC[C@H]1C(=O)O)[C@@H](C)O)C(C)C [Spampcin56-86] (H-RRAAHGLLPRLRAPPPFHKRCVCLCRTAPPP-OH; N-terminus and C-terminus assumed)
MBC [1]: 1.5-3^ μM | MIC [1]: 1.5-3^ μM | MBC [2]: 3 to 6 µM | MIC [2]: 3 to 6 µM | MBC [3]: 3 to 6 µM | MIC [3]: 3 to 6 µM | MBC [4]: 24 to 48 µM | MIC [4]: 3 to 6 µM | MBC [5]: 3 to 6 µM | MIC [5]: 3 to 6 µM | MBC [6]: 3 to 6 µM | MIC [6]: 3 to 6 µM | MBC [7]: 12 to 24 µM | MBC [8]: 3 to 6 µM | MIC [8]: 1.5-3^ μM | MBC [9]: 3 to 6 µM | MIC [9]: 1.5-3^ μM | MBC [10]: 1.5-3^ μM | MIC [10]: 0 to 1.5 µM | MBC [11]: 3 to 6 µM | MIC [11]: 3 to 6 µM | MIC [12]: 3 to 6 µM | MBC [13]: 1.5-3^ μM | MIC [13]: 1.5-3^ μM | MBC [14]: 3 to 6 µM | MBC [15]: 3 to 6 µM | MIC [15]: 3 to 6 µM | MBC [16]: 6 to 12 µM | MIC [16]: 6 to 12 µM | MBC [17]: 1.5-3^ μM | MIC [17]: 1.5-3^ μM
